From ChEMBL document CHEMBL1201862, “PubChem BioAssay data set” (2004) come the findings set out here.

Test systems include RPMI-8226; NCI/ADR-RES; M14; HCT-116; NCI-H23; UACC-257; HCT-15; SF-295; KM12; SNB-75; IGROV-1; CAKI-1; SK-OV-3; A549; Malme-3M; SK-MEL-5; HL-60; SR; SF-268.
Holding throughout (test): NCI anticancer screen, dose series, 48 h

SMILES strings stand for the structures.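 All cell lines were grown in 96-well plates and treated with compound for 48 hours. GI50 = concentration required for 50% inhibition of growth.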 Activity calls are given as the source filed them. No stated cut-off is given here; in the data, active = GI50 up to about 1.1 µM and inactive = higher.

As to `Clc1ccc(Nc2nnc(CCCCCCCCc3nnc(Nc4ccc(Cl)cc4)o3)o2)cc1`, the GI50 in the test with RPMI-8226 was 21.6 µM (inactive); in the test with NCI/ADR-RES, 36 µM (inactive); in the test with M14, 36 µM (inactive); with HCT-116 it was 17.3 µM (inactive); in the test with NCI-H23 it was 27.6 µM (inactive); in the test on UACC-257 it was 37.4 µM (inactive). Moreover, the GI50 is 32.6 µM in the test on HCT-15; 35.8 µM (inactive) in the test with SF-295; 23.4 µM (inactive) in the test with KM12; 82.2 µM (inactive) in the test with SNB-75; 8 µM (inactive) in the test on IGROV-1; 38.3 µM (inactive) in the test on CAKI-1. Further, the GI50 in the test with SK-OV-3 was 35.7 µM (inactive); in the test on A549 it was 28.1 µM (inactive); in the test on Malme-3M it was 11 µM (inactive); with SK-MEL-5, 23.1 µM (inactive).

Consider `Nc1ccccc1N`, for which the GI50 with RPMI-8226 is 32 µM (inactive); in the test on M14, > 100 µM (inactive); in the test on HCT-116, > 100 µM (inactive); in the test with NCI-H23, > 100 µM (inactive); in the test with HCT-15, more than 100 µM; with SF-295 it was > 100 µM (inactive). Further, the GI50 in the test on KM12 was > 100 µM (inactive); in the test on SNB-75, > 100 µM (inactive); in the test on IGROV-1, > 100 µM (inactive); with CAKI-1 it was > 100 µM (inactive); in the test with SK-OV-3, > 100 µM (inactive); in the test with HL-60 it was 25.6 µM (inactive). For the same compound, the GI50 is 32.9 µM (inactive) in the test on SR; > 100 µM (inactive) in the test with A549; > 100 µM (inactive) in the test on Malme-3M; > 100 µM (inactive) in the test on SF-268; > 100 µM (inactive) in the test with SK-MEL-5.

On to `CCN(CC)CC(C(C)=O)C(c1ccccc1)c1c(O)c2ccccc2oc1=O` (stereo not drawn), for which the GI50 with RPMI-8226 was > 100 µM (inactive); with M14 it was > 100 µM (inactive); in the test with HCT-116, > 100 µM (inactive); in the test on UACC-257, 63.1 µM (inactive); in the test on HCT-15, more than 100 µM; in the test with SF-295, > 100 µM (inactive). For the same compound, the GI50 with KM12 is > 100 µM (inactive); in the test with SNB-75 it was 42.4 µM (inactive); in the test with IGROV-1 it was > 100 µM (inactive); in the test on CAKI-1, > 100 µM (inactive); in the test with SK-OV-3, > 100 µM (inactive); with HL-60, > 100 µM (inactive). The GI50 in the test on SR, with A549, in the test on Malme-3M, in the test on SF-268 and in the test on SK-MEL-5 was > 100 µM (inactive) in each case.

As to `CC1(C)CCC(Sc2ccccc2)O1` (stereo not drawn), the GI50 was > 100 µM (inactive) in the test on RPMI-8226; > 100 µM (inactive) in the test on M14; > 100 µM (inactive) with HCT-116; > 100 µM (inactive) in the test on NCI-H23; > 100 µM (inactive) with UACC-257; more than 100 µM in the test with HCT-15. The GI50 with SF-295 was > 100 µM (inactive); in the test with KM12, > 100 µM (inactive); in the test on SNB-75 it was 92 µM (inactive); in the test on IGROV-1, > 100 µM (inactive); in the test on CAKI-1, > 100 µM (inactive); in the test with SK-OV-3, > 100 µM (inactive). Besides, the GI50 in the test on HL-60, in the test on SR, in the test on A549, in the test on SF-268 and in the test on SK-MEL-5 was > 100 µM (inactive) each time.

As to `COc1ccc(NC(=O)CC/C(CC(=O)c2ccco2)=N/Nc2ccc([N+](=O)[O-])cc2[N+](=O)[O-])cc1`, the GI50 in the test with RPMI-8226 is 17.1 µM (inactive); in the test on M14, > 100 µM (inactive); in the test on HCT-116, 76.2 µM (inactive); with NCI-H23 it was 14.3 µM (inactive); in the test with UACC-257, 49.8 µM (inactive); in the test on HCT-15 it was more than 100 µM. Moreover, the GI50 is 62.1 µM (inactive) in the test with SF-295; > 100 µM (inactive) in the test with KM12; > 100 µM (inactive) in the test on SNB-75; > 100 µM (inactive) in the test on IGROV-1; > 100 µM (inactive) in the test on CAKI-1; > 100 µM (inactive) with SK-OV-3. Also, the GI50 in the test with HL-60 is 30.1 µM (inactive); in the test on SR, 26.7 µM (inactive); in the test on A549, > 100 µM (inactive); in the test with Malme-3M it was > 100 µM (inactive); in the test on SF-268, 64 µM (inactive); in the test with SK-MEL-5, 48.4 µM (inactive).

With `O=C(CCc1nnc2s/c(=C\c3ccccc3)c(=O)n12)Nc1cc(Cl)ccc1Cl`, the GI50 in the test with RPMI-8226 was > 100 µM (inactive); in the test on M14, > 100 µM (inactive); in the test with HCT-116, 24 µM (inactive); with NCI-H23, > 100 µM (inactive); in the test with UACC-257 it was > 100 µM (inactive); in the test with HCT-15, 34.2 µM. Besides, the GI50 with SF-295, in the test with KM12, with SNB-75, in the test with IGROV-1, with CAKI-1 and in the test with SK-OV-3 was > 100 µM (inactive) each time. For the same compound, the GI50 in the test on HL-60, in the test on SR, in the test with A549, with Malme-3M, with SF-268 and in the test with SK-MEL-5 was > 100 µM (inactive) throughout.

As to `N#CC12CC3(CCC1CCC1(C2)OCCO1)OCCO3` (stereo not drawn), the GI50 in the test with RPMI-8226 was > 100 µM (inactive); in the test with M14, > 100 µM (inactive); in the test with HCT-116 it was > 100 µM (inactive); with NCI-H23, > 100 µM (inactive); in the test with UACC-257 it was > 100 µM (inactive); in the test on HCT-15, more than 100 µM. For the same compound, the GI50 with SF-295, in the test on KM12, with SNB-75, with IGROV-1, in the test with CAKI-1 and in the test with SK-OV-3 was > 100 µM (inactive) throughout. For the same compound, the GI50 in the test on HL-60, with SR, in the test with A549, in the test on Malme-3M, in the test with SF-268 and in the test with SK-MEL-5 was > 100 µM (inactive) throughout.

For `Cn1c(=O)c(C(c2ccc([N+](=O)[O-])cc2)c2c(O)c3ccccc3n(C)c2=O)cc2ccccc21` (stereo not drawn), the GI50 in the test on RPMI-8226 is 41.8 µM (inactive); with M14, 37.8 µM (inactive); in the test with HCT-116, 44.2 µM (inactive); with NCI-H23, 32.6 µM (inactive); with UACC-257, 20.5 µM (inactive); with HCT-15, 45.8 µM. Moreover, the GI50 in the test on SF-295 was 39.3 µM (inactive); with KM12 it was 75.2 µM (inactive); in the test on SNB-75, 23 µM (inactive); in the test on IGROV-1, 42.3 µM (inactive); with CAKI-1, 47.8 µM (inactive); in the test with SK-OV-3 it was 60.1 µM (inactive). In addition, the GI50 is 36.1 µM (inactive) in the test on HL-60; 39.4 µM (inactive) in the test with SR; 93.5 µM (inactive) with A549; 26.7 µM (inactive) with Malme-3M; 53.1 µM (inactive) in the test with SF-268; 51.3 µM (inactive) in the test on SK-MEL-5.

On to `COC(=O)[C@@H]1C(=O)O[C@@H](c2ccc3c(c2)OCO3)[C@@H]1C(=O)OC.COC(=O)[C@H]1C(=O)O[C@@H](c2ccc3c(c2)OCO3)[C@@H]1C(=O)OC`, for which the GI50 was > 100 µM (inactive) in the test on RPMI-8226; > 100 µM (inactive) in the test on M14; > 100 µM (inactive) in the test with HCT-116; > 100 µM (inactive) in the test with NCI-H23; > 100 µM (inactive) with UACC-257; more than 100 µM with HCT-15. The GI50 in the test with SF-295, with KM12, in the test on SNB-75, with IGROV-1, in the test on CAKI-1 and with SK-OV-3 was > 100 µM (inactive) each time. Further, the GI50 with HL-60, with SR, in the test with A549, in the test with Malme-3M, with SF-268 and with SK-MEL-5 was > 100 µM (inactive) throughout.

Regarding `NC(Cc1ccc(OCc2ccccc2)cn1)C(=O)O` (stereo not drawn), the GI50 was > 100 µM (inactive) in the test on RPMI-8226; > 100 µM (inactive) in the test on NCI/ADR-RES; > 100 µM (inactive) in the test with HCT-116; > 100 µM (inactive) in the test with NCI-H23; > 100 µM (inactive) with UACC-257; more than 100 µM in the test with HCT-15. Besides, the GI50 with SF-295, in the test with KM12, in the test on IGROV-1, in the test with CAKI-1, in the test on HL-60 and in the test on SR was > 100 µM (inactive) throughout. Besides, the GI50 in the test on A549, with Malme-3M, with SF-268 and in the test with SK-MEL-5 was > 100 µM (inactive) in each case.

In the case of `CCSC1(SCC)CC(Cc2ccc(OC)cc2)N(/C=N/C(C)(C)C)C1` (stereo not drawn), the GI50 with M14 is 14.7 µM (inactive); in the test on HCT-116, 20.9 µM (inactive); with NCI-H23, 18.7 µM (inactive); in the test on UACC-257, 20.2 µM (inactive); with HCT-15 it was 25.8 µM; with SF-295, 15.1 µM (inactive). The GI50 is 25.9 µM (inactive) in the test on KM12; 26.2 µM (inactive) in the test with SNB-75; 37.8 µM (inactive) in the test with IGROV-1; 21 µM (inactive) with CAKI-1; 22.8 µM (inactive) with SK-OV-3; 10.6 µM (inactive) in the test with HL-60. Moreover, the GI50 in the test with SR was 10.6 µM (inactive); in the test on A549, 36.9 µM (inactive); with Malme-3M it was 20.1 µM (inactive); in the test with SF-268 it was 61 µM (inactive); in the test with SK-MEL-5, 16.4 µM (inactive).

For the compound `COCCCCCC(=O)CP(=O)(OC)OC`, the GI50 is > 100 µM (inactive) in the test on RPMI-8226; > 100 µM (inactive) in the test with M14; > 100 µM (inactive) in the test with HCT-116; > 100 µM (inactive) in the test on NCI-H23; > 100 µM (inactive) in the test on UACC-257; more than 100 µM in the test on HCT-15. The GI50 with SF-295, in the test with KM12, with SNB-75, with IGROV-1, in the test with CAKI-1 and in the test with SK-OV-3 was > 100 µM (inactive) in each case. The GI50 in the test on HL-60 was 86.3 µM (inactive); in the test with SR, 52 µM (inactive); in the test on A549, > 100 µM (inactive); in the test on Malme-3M it was > 100 µM (inactive); in the test on SF-268 it was > 100 µM (inactive); with SK-MEL-5 it was > 100 µM (inactive).
